Measurements published in US8546529B2, “Injectable bone regeneration gel containing bone formation enhancing peptide” (Nano Intelligent Biomedical Engineering Corporation Co., …, priority 2007, dated 2013).

System: Mesodermal stem cells C2C12
Assay: Calcification of cells by bone regeneration materials (calcein fluorescence)
Type: cell-based
Conditions: C2C12 cultured for 14 days in medium for hard tissue formation containing calcein; compared with material containing no peptide
Description: Mesodermal stem cells C2C12 (America Type Culture Collection, CRL-1772) were cultured for 14 days, while adding the injectable bone regeneration materials prepared in Example 1 to a medium for hard tissue formation, containing calcein (fluorescent substance for calcium). The cultured osteoblasts were fixed with 2% glutaraldehyde solution. The fixed cells were treated with 1% triton X-100, and then nuclei were strained with DAPI (blue) and actins were stained with Rhodamine phalloidin (Molecular Probe, red), thus staning the cultured cells.

## YGLRSKSKKFRRPDIQYPDAT (listed as Homo sapiens) [SEQ ID NO: 6]
  calcification (calcium fluorescence deposited on extracellular matrixes): promotes calcification of cells
